# Test: recombinant UMI read abundance after kanamycin selection (control-corrected) (log10(CPM+1)); higher = more efficient recombination; extreme values may be limits of the assay; sequences stand for … in AGTGCAGAGAAAATCGGCCAGTTTTCTCTGCCTGCAGTCCGCATGCCGTGGGACCCCTTGGGTTCTAACCTGTTGCCTAGATTTATGCAGCGGACTGCCTTTCTCCCAAAGTGATAAACCGG…AGGTTGGTTTCACT; site = the 11-nt donor
# Procedure, shortened: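 Sequenced counts of recombinant UMIs were turned into CPM, averaged across replicates and scaled with control-derived factors. The reported figure is log10(CPM+1). Those UMIs, each 12 nt long, tagged donor and donor-binding-loop pairs on a plasmid with a promoterless kanamycin gene, screened as a pool in Escherichia coli with IPTG (0.07 mM) plus kanamycin or without selection.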
# 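Note: IS621 bridge recombinase in Escherichia coli cells against a fixed T5 target plasmid.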
row,Sequence,recombinant UMI read abundance (log10)
1,CTACTGACATGGACCGGTTTTCCCGGTAATCCGTATTTGGA (site CTACTGACTTC),0.475
2,CTACTGACATGGACCGGTTTTCCCGGTAATCCGTATTTGGA (site CTACTTACTTC),0.67
3,CTACTTACATGGACCGGTTTTCCCGGTAATCCGTATTTGGA (site CTACTAACTTC),0.0935
4,CTACTTACATGGACCGGTTTTCCCGGTAATCCGTATTTGGA (site CTACTCACTTC),0.209
5,CTACTTACATGGACCGGTTTTCCCGGTAATCCGTATTTGGA (site CTACTGACTTC),0.0111
6,CTACTTACATGGACCGGTTTTCCCGGTAATCCGTATTTGGA (site CTACTTACTTC),1.32
7,CTACTTTCATGGACCGGTTTTCCCGGTAATCCGTATTTGAC (site CTACTTTCTGT),1.94
8,CTACTTTCATGGACCGGTTTTCCCGGTAATCCGTATTTGAC (site CTAGTATCTGT),0
9,CTAGAATCATGGACCGGTTTTCCCGGTAATCCGTATTTGAC (site CTAGAATCTGT),2.83
10,CTAGAATCATGGACCGGTTTTCCCGGTAATCCGTATTTGAC (site CTAGCATCTGT),0
11,CTAGAATCATGGACCGGTTTTCCCGGTAATCCGTATTTGAC (site CTAGGATCTGT),1.28
12,CTAGAATCATGGACCGGTTTTCCCGGTAATCCGTATTTGAC (site CTAGTATCTGT),2
13,CTAGAGGCATGGACCGGTTTTCCCGGTAATCCGTATTTGTT (site CTAGAGGCTAA),1.82
14,CTAGCAGCATGGACCGGTTTTCCCGGTAATCCGTATTTGCT (site CAAGCAGCTAG),0.38
15,CTAGCAGCATGGACCGGTTTTCCCGGTAATCCGTATTTGCT (site CCAGCAGCTAG),0.129
16,CTAGCAGCATGGACCGGTTTTCCCGGTAATCCGTATTTGCT (site CGAGCAGCTAG),0
17,CTAGCAGCATGGACCGGTTTTCCCGGTAATCCGTATTTGCT (site CTAGCAGCTAG),1.36
18,CTAGCGCCATGGACCGGTTTTCCCGGTAATCCGTATTTGTG (site CAAGCGCCTCA),0.0754
19,CTAGCGCCATGGACCGGTTTTCCCGGTAATCCGTATTTGTG (site CCAGCGCCTCA),0.0159
20,CTAGCGCCATGGACCGGTTTTCCCGGTAATCCGTATTTGTG (site CGAGCGCCTCA),0.00935
21,CTAGCGCCATGGACCGGTTTTCCCGGTAATCCGTATTTGTG (site CTAGCGCCTCA),0.446
22,CTAGGACCATGGACCGGTTTTCCCGGTAATCCGTATTTGGG (site CAAGGACCTCC),0.0215
23,CTAGGACCATGGACCGGTTTTCCCGGTAATCCGTATTTGGG (site CCAGGACCTCC),0.00872
24,CTAGGACCATGGACCGGTTTTCCCGGTAATCCGTATTTGGG (site CGAGGACCTCC),0
25,CTAGGACCATGGACCGGTTTTCCCGGTAATCCGTATTTGGG (site CTAGGACCTCC),0.0095

row,Sequence,recombinant UMI read abundance (log10)
1,CTAGGACCATGGACCGGTTTTCCCGGTAATCCGTATTTGTG (site CTAGGACCTCA),0.00443
2,CTAGGATCATGGACCGGTTTTCCCGGTAATCCGTATTTGAC (site CTAGAATCTGT),2.89
3,CTAGGATCATGGACCGGTTTTCCCGGTAATCCGTATTTGAC (site CTAGCATCTGT),1.06
4,CTAGGATCATGGACCGGTTTTCCCGGTAATCCGTATTTGAC (site CTAGGATCTGT),1.9
5,CTAGGATCATGGACCGGTTTTCCCGGTAATCCGTATTTGAC (site CTAGTATCTGT),1.35
6,CTAGTACCATGGACCGGTTTTCCCGGTAATCCGTATTTGGC (site CTAGTACCTGC),0
7,CTAGTACCATGGACCGGTTTTCCCGGTAATCCGTATTTGGC (site CTAGTATCTGT),1.63
8,CTAGTAGCATGGACCGGTTTTCCCGGTAATCCGTATTTGAC (site CTAGTAACTGT),2.01
9,CTAGTAGCATGGACCGGTTTTCCCGGTAATCCGTATTTGAC (site CTAGTACCTGT),0
10,CTAGTAGCATGGACCGGTTTTCCCGGTAATCCGTATTTGAC (site CTAGTAGCTGT),2.87
11,CTAGTAGCATGGACCGGTTTTCCCGGTAATCCGTATTTGAC (site CTAGTATCTGT),2.74
12,CTAGTATCATGGACCGGTTTTCCCGGTAATCCGTATTTGGC (site CTAGTATCTGA),2.25
13,CTAGTATCATGGACCGGTTTTCCCGGTAATCCGTATTTGGC (site CTAGTATCTGC),3.32
14,CTAGTATCATGGACCGGTTTTCCCGGTAATCCGTATTTGGC (site CTAGTATCTGG),2.2
15,CTAGTATCATGGACCGGTTTTCCCGGTAATCCGTATTTGGC (site CTAGTATCTGT),2.76
16,CTAGTATCATGGACCGGTTTTCCCGGTAATCCGTATTTGGT (site CTAGTATCTAC),1.85
17,CTAGTATCATGGACCGGTTTTCCCGGTAATCCGTATTTGGT (site CTAGTATCTGT),2.06
18,CTAGTATCATGGACCGGTTTTCCCGGTAATCCGTATTTGTC (site CTAGTATCTGA),3.35
19,CTAGTATCATGGACCGGTTTTCCCGGTAATCCGTATTTGTC (site CTAGTATCTGC),3.17
20,CTAGTATCATGGACCGGTTTTCCCGGTAATCCGTATTTGTC (site CTAGTATCTGG),3.08
21,CTAGTATCATGGACCGGTTTTCCCGGTAATCCGTATTTGTC (site CTAGTATCTGT),2.65
22,CTAGTCTCATGGACCGGTTTTCCCGGTAATCCGTATTTGAG (site CTAGTATCTGT),0
23,CTAGTCTCATGGACCGGTTTTCCCGGTAATCCGTATTTGAG (site CTAGTCTCTCT),0.61
24,CTAGTCTCATGGACCGGTTTTCCCGGTAATCCGTATTTGTC (site CTAGTATCTGT),0.445
25,CTAGTCTCATGGACCGGTTTTCCCGGTAATCCGTATTTGTC (site CTAGTCTCTGA),3.48

row,Sequence,recombinant UMI read abundance (log10)
1,CTAGTTGCATGGACCGGTTTTCCCGGTAATCCGTATTTGAC (site CTAGTATCTGT),0.412
2,CTAGTTGCATGGACCGGTTTTCCCGGTAATCCGTATTTGAC (site CTAGTTGCTGT),2.24
3,CTATAGCCATGGACCGGTTTTCCCGGTAATCCGTATTTGCG (site CTATAGCCTCG),1.01
4,CTATATCCATGGACCGGTTTTCCCGGTAATCCGTATTTGTA (site CTATATCCTTA),1.51
5,CTATCATCATGGACCGGTTTTCCCGGTAATCCGTATTTGAT (site CTATCATCTAT),0.00941
6,CTATGATCATGGACCGGTTTTCCCGGTAATCCGTATTTGCA (site CTATGATCTTG),2.62
7,CTATGCTCATGGACCGGTTTTCCCGGTAATCCGTATTTGAA (site CAATGCTCTTT),0.941
8,CTATGCTCATGGACCGGTTTTCCCGGTAATCCGTATTTGAA (site CCATGCTCTTT),0.497
9,CTATGCTCATGGACCGGTTTTCCCGGTAATCCGTATTTGAA (site CGATGCTCTTT),0.383
10,CTATGCTCATGGACCGGTTTTCCCGGTAATCCGTATTTGAA (site CTATGCTCTTT),2.25
11,CTATTACCATGGACCGGTTTTCCCGGTAATCCGTATTTGAG (site CTATTACCTCT),0.00551
12,CTATTATCATGGACCGGTTTTCCCGGTAATCCGTATTTGAC (site CTAATATCTGT),0
13,CTATTATCATGGACCGGTTTTCCCGGTAATCCGTATTTGAC (site CTACTATCTGT),1.96
14,CTATTATCATGGACCGGTTTTCCCGGTAATCCGTATTTGAC (site CTAGTATCTGT),1.61
15,CTATTATCATGGACCGGTTTTCCCGGTAATCCGTATTTGAC (site CTATTATCTGT),2.82
16,CTATTATCATGGACCGGTTTTCCCGGTAATCCGTATTTGAT (site CTAGTATCTGT),0
17,CTATTATCATGGACCGGTTTTCCCGGTAATCCGTATTTGAT (site CTATTATCTAT),1.18
18,CTATTTCCATGGACCGGTTTTCCCGGTAATCCGTATTTGGA (site CTATTTCCTTC),0
19,CTCAATTCATGGACCGGTTTTCCCGGTAATCCGTATTTGCT (site CTCAATTCTAG),1.7
20,CTCACAACATGGACCGGTTTTCCCGGTAATCCGTATTTGTG (site CTCACAACTCA),0
21,CTCACACCATGGACCGGTTTTCCCGGTAATCCGTATTTGTC (site CTCACACCTGA),0
22,CTCACGCCATGGACCGGTTTTCCCGGTAATCCGTATTTGTG (site CTCACGCCTCA),0
23,CTCACTACATGGACCGGTTTTCCCGGTAATCCGTATTTGAG (site CTCACTACTCT),0.232
24,CTCACTACATGGACCGGTTTTCCCGGTAATCCGTATTTGAG (site CTCCCTACTCT),0
25,CTCACTACATGGACCGGTTTTCCCGGTAATCCGTATTTGAG (site CTCGCTACTCT),0

# Reference: the supplement of paper PMC11208160
